Data published in PubChem BioAssay AID330 (DTP/NCI, 2004).
“And” between values parts separate entries of the source, which are not always exact repeats. Identical values can stand only once. Inconclusive results and toxic doses are left out. Rule for the calls: active = survival T/C of 150% or more; inactive = T/C below 125% in these data.

System: P388 leukemia ip, CD2F1 mice, survival T/C
Test: NCI In Vivo Anticancer Drug Screen. Data for tumor model P388 Leukemia (intraperitoneal) in CD2F1 (CDF1) mice
Conditions: endpoint: median survival time, higher = longer survival
Summary of the method: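 Mice carrying the transplanted tumor received test compound or vehicle. Survival was recorded in each group, and the value is the treated-group measurement divided by that of the vehicle-treated control group.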

[1] = dose: 50.0 mg/kg/injection, schedule: Q01DX005 (ip), vehicle: saline with Tween-80
[2] = dose: 100.0 mg/kg/injection, schedule: Q01DX005 (ip), vehicle: saline with Tween-80
[3] = dose: 200.0 mg/kg/injection, schedule: Q01DX005 (ip), vehicle: saline with Tween-80
[4] = dose: 6.25 mg/kg/injection, schedule: Q01DX009 (ip), vehicle: saline
[5] = dose: 12.5 mg/kg/injection, schedule: Q01DX009 (ip), vehicle: saline
[6] = dose: 25.0 mg/kg/injection, schedule: Q01DX009 (ip), vehicle: saline
[7] = dose: 60.0 mg/kg/injection, schedule: Q01DX005 (ip), vehicle: saline with Tween-80
[8] = dose: 120.0 mg/kg/injection, schedule: Q01DX005 (ip), vehicle: saline with Tween-80
[9] = dose: 240.0 mg/kg/injection, schedule: Q01DX005 (ip), vehicle: saline with Tween-80
[10] = dose: 100.0 mg/kg/injection, schedule: Q01DX009 (ip), vehicle: saline
[11] = dose: 200.0 mg/kg/injection, schedule: Q01DX009 (ip), vehicle: saline

Measured: T/C

O=CNNc1cccc(Cl)n1
inactive: dose: 100.0 mg/kg/injection, schedule: Q01DX001 (ip), vehicle: Klucel (hydroxypropylcellulose) (HPC) 97 % of control | dose: 200.0 mg/kg/injection, schedule: Q01DX001 (ip), vehicle: Klucel (hydroxypropylcellulose) (HPC) 97 % of control | dose: 400.0 mg/kg/injection, schedule: Q01DX001 (ip), vehicle: Klucel (hydroxypropylcellulose) (HPC) 98 % of control

Cn1c(=O)c2c(nc(/N=C/c3ccc([N+](=O)[O-])cc3)n2C)n(C)c1=O
inactive: dose: 100.0 mg/kg/injection, schedule: Q04DX003 (ip), vehicle: saline 100 % of control | dose: 200.0 mg/kg/injection, schedule: Q04DX003 (ip), vehicle: saline 86 % of control | dose: 400.0 mg/kg/injection, schedule: Q04DX003 (ip), vehicle: saline 93 % of control

CC(C)(CO)NCCNC(C)(C)CO
inactive: [1] 98 % of control | [2] 90 % of control | [3] 100 % of control

Nc1ncnc2c1cnn2CCCl
inactive: [4] 95 % of control | [5] 100 % of control | [6] 100 % of control

COc1cc([N+](=O)[O-])c(OC)cc1Nc1ccccc1C(=O)O
inactive: dose: 60.0 mg/kg/injection, schedule: Q01DX005 (ip), vehicle: Klucel + Tween-80 89 % of control | dose: 120.0 mg/kg/injection, schedule: Q01DX005 (ip), vehicle: Klucel + Tween-80 90 % of control

CC(CN=C(CC(=O)C(F)(F)F)C(F)(F)F)N=C(CC(=O)C(F)(F)F)C(F)(F)F.[Ni] (stereo not drawn)
inactive: dose: 100.0 mg/kg/injection, schedule: Q04DX002 (ip), vehicle: saline with Tween-80 98 % of control | dose: 200.0 mg/kg/injection, schedule: Q04DX002 (ip), vehicle: saline with Tween-80 98 % of control | dose: 400.0 mg/kg/injection, schedule: Q04DX002 (ip), vehicle: saline with Tween-80 93 % of control

COc1cc(-c2coc3c4c(ccc3c2=O)OC(C)(C)C=C4)c(OC)c2c1OCO2
inactive: dose: 10.0 mg/kg/injection, schedule: Q01DX009 (ip), vehicle: other 111 % of control | dose: 20.0 mg/kg/injection, schedule: Q01DX009 (ip), vehicle: other 102 % of control | dose: 40.0 mg/kg/injection, schedule: Q01DX009 (ip), vehicle: other 123 % of control

Cc1onc(-c2c(F)cccc2Cl)c1-c1ncc(-c2ccc(Br)cc2)o1
inactive: [7] 100 % of control | [8] 104 % of control | [9] 101 % of control

CCS(=O)(=O)OCCF
inactive: dose: 0.78 mg/kg/injection, schedule: Q01DX009 (ip), vehicle: saline with Tween-80 106 % of control | dose: 1.56 mg/kg/injection, schedule: Q01DX009 (ip), vehicle: saline with Tween-80 111 % of control | dose: 3.12 mg/kg/injection, schedule: Q01DX009 (ip), vehicle: saline with Tween-80 106 % of control and 91 % of control

NC(Cc1ccc(OC(c2ccccc2)c2ccccc2)cc1)C(=O)O (stereo not drawn)
inactive: dose: 12.5 mg/kg/injection, schedule: Q01DX009 (ip), vehicle: saline with Tween-80 116 % of control | dose: 25.0 mg/kg/injection, schedule: Q01DX009 (ip), vehicle: saline with Tween-80 98 % of control | dose: 50.0 mg/kg/injection, schedule: Q01DX009 (ip), vehicle: saline with Tween-80 88 % of control | dose: 100.0 mg/kg/injection, schedule: Q01DX009 (ip), vehicle: saline with Tween-80 95 % of control | dose: 200.0 mg/kg/injection, schedule: Q01DX009 (ip), vehicle: saline with Tween-80 97 % of control

CCOc1cc2c(cc1Cc1cc(OC)c(OC)c(OC)c1)OCO2
inactive: dose: 60.0 mg/kg/injection, schedule: Q01DX005 (ip), vehicle: Klucel (hydroxypropylcellulose) (HPC) 91 % of control | dose: 120.0 mg/kg/injection, schedule: Q01DX005 (ip), vehicle: Klucel (hydroxypropylcellulose) (HPC) 98 % of control | dose: 240.0 mg/kg/injection, schedule: Q01DX005 (ip), vehicle: Klucel (hydroxypropylcellulose) (HPC) 86 % of control

O=c1[nH]c(Cl)nc2n[nH]c(Br)c12
inactive: dose: 100.0 mg/kg/injection, schedule: Q01DX001 (ip), vehicle: saline with Tween-80 98 % of control | dose: 200.0 mg/kg/injection, schedule: Q01DX001 (ip), vehicle: saline with Tween-80 103 % of control

C[CH2][Ge]([CH2]C)[CH2]C(=O)OC.C[CH2][Ge]([CH2]C)[CH2]C(=O)OC
inactive: dose: 50.0 mg/kg/injection, schedule: Q01DX005 (ip), vehicle: Klucel (hydroxypropylcellulose) (HPC) 100 % of control | dose: 100.0 mg/kg/injection, schedule: Q01DX005 (ip), vehicle: Klucel (hydroxypropylcellulose) (HPC) 100 % of control | dose: 200.0 mg/kg/injection, schedule: Q01DX005 (ip), vehicle: Klucel (hydroxypropylcellulose) (HPC) 101 % of control

CC(=O)NS(=O)(=O)c1ccc(N=NC2C(=O)N(C(=O)c3ccc(Cl)cc3)N=C2C)cc1 (stereo not drawn)
inactive: dose: 1.5 mg/kg/injection, schedule: Q01DX001 (ip), vehicle: saline with Tween-80 100 % of control | dose: 3.0 mg/kg/injection, schedule: Q01DX001 (ip), vehicle: saline with Tween-80 104 % of control | dose: 6.0 mg/kg/injection, schedule: Q01DX001 (ip), vehicle: saline with Tween-80 107 % of control | dose: 12.0 mg/kg/injection, schedule: Q01DX001 (ip), vehicle: saline with Tween-80 100 % of control | dose: 12.5 mg/kg/injection, schedule: Q01DX001 (ip), vehicle: saline with Tween-80 94 % of control

O=C(NC1CCOC1=O)OCc1ccccc1 (stereo not drawn)
inactive: dose: 25.0 mg/kg/injection, schedule: Q01DX009 (ip), vehicle: distilled water + Tween-80 110 % of control | dose: 50.0 mg/kg/injection, schedule: Q01DX009 (ip), vehicle: distilled water + Tween-80 95 % of control | dose: 100.0 mg/kg/injection, schedule: Q01DX009 (ip), vehicle: distilled water + Tween-80 117 % of control | dose: 200.0 mg/kg/injection, schedule: Q01DX009 (ip), vehicle: distilled water + Tween-80 111 % of control

CCCC[Si](O)(CCCC)CCCC
inactive: dose: 50.0 mg/kg/injection, schedule: Q01DX009 (ip), vehicle: saline 100 % of control | [10] 102 % of control | [11] 100 % of control

CC(C)([NH-])CO.CC(C)([NH-])CO.[Cl][Cd][Cl]
inactive: dose: 3.13 mg/kg/injection, schedule: Q01DX009 (ip), vehicle: saline 91 % of control | [4] 91 % of control

CCOC(=O)C(c1ccccc1)c1cccc(C(C(=O)OCC)c2ccccc2)n1 (stereo not drawn)
inactive: [7] 93 % of control | [8] 90 % of control | [9] 87 % of control

C=C[Si](C)(C)c1ccc([Si](C)(C)C=C)cc1
inactive: [4] 107 % of control | [5] 105 % of control | [6] 117 % of control | [10] 97 % of control | [11] 99 % of control

O=S(=O)(O)c1cc(O)c(O)c(S(=O)(=O)O)c1
inactive: [10] 101 % of control and 95 % of control | [11] 100 % of control and 94 % of control | dose: 400.0 mg/kg/injection, schedule: Q01DX009 (ip), vehicle: saline 100 % of control and 103 % of control | dose: 600.0 mg/kg/injection, schedule: Q01DX009 (ip), vehicle: saline 104 % of control and 90 % of control

CC(=O)C1C(=O)C(=O)N(c2ccc(C)c(C)c2)C1=O (stereo not drawn)
inactive: [1] 101 % of control | [2] 97 % of control | [3] 100 % of control

CC(C)NC(=O)OCc1c(COC(=O)NC(C)C)c(-c2ccc(Cl)c(Cl)c2)n2c1CSC2
inactive: dose: 25.0 mg/kg/injection, schedule: Q01DX005 (ip), vehicle: Klucel + Tween-80 91 % of control | dose: 50.0 mg/kg/injection, schedule: Q01DX005 (ip), vehicle: Klucel + Tween-80 88 % of control | dose: 100.0 mg/kg/injection, schedule: Q01DX005 (ip), vehicle: Klucel + Tween-80 87 % of control and 92 % of control | dose: 200.0 mg/kg/injection, schedule: Q01DX005 (ip), vehicle: Klucel + Tween-80 86 % of control and 88 % of control | dose: 400.0 mg/kg/injection, schedule: Q01DX005 (ip), vehicle: Klucel + Tween-80 89 % of control
